How the values were obtained:
[1] = test system: human cervical tumor cell line HeLa (ATCC CCL-2); experiment: SAC-Formation - Nocodazole-Induced Assay; type: cell-based; conditions: Homo sapiens, HeLa, 24 h, HeLa cells, nocodazole 0.1 μg/ml together with test compound, decrease of mitotic cells (phospho-histone H3 Ser10)
In short: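 Loss of phospho-histone H3 Ser10-positive cells, counted against Hoechst-stained nuclei by high-content imaging, marked mitotic breakthrough. Compounds (0.005–20 μM, 0.5% DMSO) were co-dosed with 0.1 μg/ml nocodazole onto HeLa cells for 24 h at 37 °C. Curves were fitted with a four-parameter Hill equation.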

HeLa = experiment: Proliferation assay (crystal violet), HeLa; type: cell-based; conditions: Homo sapiens, HeLa, 96 h, HeLa cells; 4 days incubation; crystal violet staining; read-out: IC50 inhibition of proliferation, HeLa
In short: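 Absorbance at 595 nm of crystal-violet-stained cells after 4 days' exposure to 0.001–10 μM compound (0.5% DMSO). Values normalized to a day-0 plate (0%) and untreated cells (100%); IC50 by 4-parameter fit.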

| SMILES | IC50 [1] | IC50 (HeLa) |
| --- | --- | --- |
| Cc1nsc(Nc2cnc3ccccc3n2)c1C(=O)Nc1ccc(NC(=O)C(C)(C)C)cc1 [Example 185, N-{4-[(2,2-dimethylpropanoyl)amino]phenyl}-3-methyl-5-(quinoxalin-2-ylamino)-1,2-thiazole-4-carboxamide] | 1600 nM | > 10000 nM |
| Cc1cc(C)n(-c2ccccc2NC(=O)c2c(C)nsc2Nc2cnc3ccccc3n2)n1 [Example 243, N-[2-(3,5-dimethyl-1H-pyrazol-1-yl)phenyl]-3-methyl-5-(quinoxalin-2-ylamino)-1,2-thiazole-4-carboxamide] | 1800 nM | > 10000 nM |
| Cc1nsc(Nc2cnc(C(F)(F)F)cn2)c1C(=O)Nc1ccc(OCCN)nc1 [Example 197, N-[6-(2-aminoethoxy)pyridin-3-yl]-3-methyl-5-{[5-(trifluoromethyl)pyrazin-2-yl]amino}-1,2-thiazole-4-carboxamide] | 1000 nM | 7500 nM |
| Cc1nsc(Nc2cnc3ccccc3n2)c1C(=O)Nc1ccc(NC2CCN(C(=O)OC(C)(C)C)CC2)nc1 [Example 234, tert-butyl 4-{[5-({[3-methyl-5-(quinoxalin-2-ylamino)-1,2-thiazol-4-yl]carbonyl}amino)pyridin-2-yl]amino}piperidine-1-carboxylate] | 1000 nM | 9600 nM |
| CNS(=O)(=O)c1ccc(NC(=O)c2c(C)nsc2Nc2cnc(C(F)(F)F)cn2)cc1 [Example 212, 3-methyl-N-[4-(methylsulfamoyl)phenyl]-5-{[5-(trifluoromethyl)pyrazin-2-yl]amino}-1,2-thiazole-4-carboxamide] | 2000 nM | > 10000 nM |
| Cc1nsc(Nc2ccc(C#N)cn2)c1C(=O)Nc1ccc(OCCC(=O)OC(C)(C)C)nc1 [Example 199, tert-butyl 3-({5-[({5-[(5-cyanopyridin-2-yl)amino]-3-methyl-1,2-thiazol-4-yl}carbonyl)amino]pyridin-2-yl}oxy)propanoate] | 950 nM | 8700 nM |
| Cc1nsc(Nc2cncc(C(F)(F)F)n2)c1C(=O)Nc1ccc(OC2CCN(CCF)CC2)nc1 [Example 14, N-(6-{[1-(2-Fluoroethyl)piperidin-4-yl]oxy}pyridin-3-yl)-3-methyl-5-{[6-(trifluoro-methyl)pyrazin-2-yl]amino}-1,2-thiazole-4-carboxamide] | 940 nM | 1500 nM |
| Cc1nsc(Nc2cnc(C(F)(F)F)cn2)c1C(=O)Nc1ccc(OC2CCN(C(=O)OC(C)(C)C)CC2)c(F)c1 [Example 217, tert-butyl 4-(2-fluoro-4-{[(3-methyl-5-{[5-(trifluoromethyl)pyrazin-2-yl]amino}-1,2-thiazol-4-yl)carbonyl]amino}phenoxy)piperidine-1-carboxylate] | 860 nM | 170 nM |
| COC(=O)c1cc(NC(=O)c2c(C)nsc2Nc2cnc3ccccc3n2)cc(C(=O)OC)c1 [Example 237, dimethyl 5-({[3-methyl-5-(quinoxalin-2-ylamino)-1,2-thiazol-4-yl]carbonyl}amino)isophthalate] | 580 nM | > 10000 nM |
| Cc1nsc(Nc2cc(C#N)ccn2)c1C(=O)Nc1cccc(NC(=O)C(C)(C)C)c1 [Example 183, 5-[(4-cyanopyridin-2-yl)amino]-N-{3-[(2,2-dimethylpropanoyl)amino]phenyl}-3-methyl-1,2-thiazole-4-carboxamide] | 1500 nM | 5000 nM |
| Cc1nsc(Nc2cncc(C(F)(F)F)n2)c1C(=O)Nc1ccc(OCCCN)nc1 [Example 209, N-[6-(3-aminopropoxy)pyridin-3-yl]-3-methyl-5-{[6-(trifluoromethyl)pyrazin-2-yl]amino}-1,2-thiazole-4-carboxamide] | 2100 nM | > 10000 nM |
| Cc1nsc(Nc2cncc(C(F)(F)F)n2)c1C(=O)Nc1ccc(C(=O)NC2CCN(C(=O)OC(C)(C)C)CC2)cc1 [Example 222, tert-butyl 4-[(4-{[(3-methyl-5-{[6-(trifluoromethyl)pyrazin-2-yl]amino}-1,2-thiazol-4-yl)carbonyl]amino}benzoyl)amino] piperidine-1-carboxylate] | 770 nM | 6200 nM |
| Cc1nsc(Nc2cnc(C(F)(F)F)cn2)c1C(=O)Nc1ccc(OC2CCN(C)CC2)nc1 [Example 220, 3-methyl-N-{6-[(1-methylpiperidin-4-yl)oxy]pyridin-3-yl}-5-{[5-(trifluoromethyl)pyrazin-2-yl]amino}-1,2-thiazole-4-carboxamide] | 1100 nM | 6200 nM |
| Cc1nsc(Nc2cnc3ccccc3n2)c1C(=O)Nc1ccc(NCCNC(=O)OC(C)(C)C)nc1 [Example 244, tert-butyl (2-{[5-({[3-methyl-5-(quinoxalin-2-ylamino)-1,2-thiazol-4-yl]carbonyl}amino)pyridin-2-yl]amino}ethyl)carbamate] | 3700 nM | 4200 nM |
| Cc1nsc(Nc2cnc3ccccc3n2)c1C(=O)Nc1ccc(C(=O)O)cc1 [Example 187, 4-({[3-methyl-5-(quinoxalin-2-ylamino)-1,2-thiazol-4-yl]carbonyl}amino)benzoic acid] | 2200 nM | > 10000 nM |
| Cc1nsc(Nc2cnc(C(F)(F)F)cn2)c1C(=O)Nc1cccc(S(C)(=O)=O)c1 [Example 195, 3-methyl-N-[3-(methylsulfonyl)phenyl]-5-{[5-(trifluoromethyl)pyrazin-2-yl]amino}-1,2-thiazole-4-carboxamide] | 660 nM | 3100 nM |
| Cc1nsc(Nc2cc(C#N)ccn2)c1C(=O)Nc1ccc(NC2CCCNC2)nc1 (centres unmarked) [Example 242, 5-[(4-cyanopyridin-2-yl)amino]-3-methyl-N-[6-(piperidin-3-ylamino)pyridin-3-yl]-1,2-thiazole-4-carboxamide] | 2600 nM | > 10000 nM |

Now those with a lower IC50 [1], led by results:

| IC50 [1] | IC50 (HeLa) | SMILES |
| --- | --- | --- |
| 330 nM | 7300 nM | Cc1nsc(Nc2ccc(C#N)cn2)c1C(=O)Nc1ccc(S(C)(=O)=O)cc1 [Example 246, 5-[(5-cyanopyridin-2-yl)amino]-3-methyl-N-[4-(methylsulfonyl)phenyl]-1,2-thiazole-4-carboxamide] |
| 180 nM | 270 nM | Cc1nsc(Nc2cnc(C(F)(F)F)cn2)c1C(=O)Nc1ccc(OCC2CCCN(C(=O)OC(C)(C)C)C2)nc1 (centres unmarked) [Example 228, tert-butyl 3-{[(5-{[(3-methyl-5-{[5-(trifluoromethyl)pyrazin-2-yl]amino}-1,2-thiazol-4-yl)carbonyl]amino}pyridin-2-yl)oxy]methyl}piperidine-1-carboxylate] |
| 25 nM | 660 nM | Cc1nsc(Nc2cc(C#N)ccn2)c1C(=O)Nc1ccc(C(=O)OC(C)(C)C)cc1 [Example 182, tert-butyl 4-[({5-[(4-cyanopyridin-2-yl)amino]-3-methyl-1,2-thiazol-4-yl}carbonyl)amino]benzoate] |
| 200 nM | > 10000 nM | CNC(=O)c1ccc(NC(=O)c2c(C)nsc2Nc2cnc3ccccc3n2)cc1F [Example 207, N-[3-fluoro-4-(methylcarbamoyl)phenyl]-3-methyl-5-(quinoxalin-2-ylamino)-1,2-thiazole-4-carboxamide] |
| 120 nM | 910 nM | Cc1nsc(Nc2cncc(C(F)(F)F)n2)c1C(=O)Nc1ccc(OCC2CCN(C(=O)OC(C)(C)C)CC2)nc1 [Example 226, tert-butyl 4-{[(5-{[(3-methyl-5-{[6-(trifluoromethyl)pyrazin-2-yl]amino}-1,2-thiazol-4-yl)carbonyl]amino}pyridin-2-yl)oxy]methyl}piperidine-1-carboxylate] |
| 140 nM | 190 nM | Cc1nsc(Nc2cnc(C(F)(F)F)cn2)c1C(=O)Nc1ccc(F)c(OC2CCN(C(=O)OC(C)(C)C)CC2)c1 [Example 229, tert-butyl 4-(2-fluoro-5-{[(3-methyl-5-{[5-(trifluoromethyl)pyrazin-2-yl]amino}-1,2-thiazol-4-yl)carbonyl]amino}phenoxy)piperidine-1-carboxylate] |
| 330 nM | 6000 nM | CNC(=O)c1ccc(NC(=O)c2c(C)nsc2Nc2ccc(C#N)cn2)cc1F [Example 208, 5-[(5-cyanopyridin-2-yl)amino]-N-[3-fluoro-4-(methylcarbamoyl)phenyl]-3-methyl-1,2-thiazole-4-carboxamide] |
| 230 nM | 5000 nM | COC(=O)CCc1cccc(NC(=O)c2c(C)nsc2Nc2ccc(C#N)cn2)c1 [Example 176, methyl 3-{3-[({5-[(5-cyanopyridin-2-yl)amino]-3-methyl-1,2-thiazol-4-yl}carbonyl)amino]phenyl}propanoate] |
| 150 nM | 940 nM | Cc1nsc(Nc2cncc(C(F)(F)F)n2)c1C(=O)Nc1ccc(OC2CCCN(C(=O)OC(C)(C)C)C2)nc1 (centres unmarked) [Example 189, tert-butyl 3-[(5-{[(3-methyl-5-{[6-(trifluoromethyl)pyrazin-2-yl]amino}-1,2-thiazol-4-yl)carbonyl]amino}pyridin-2-yl)oxy]piperidine-1-carboxylate] |
| 210 nM | 3300 nM | Cc1nsc(Nc2cnc3ccccc3n2)c1C(=O)Nc1cccc(NC(=O)OC(C)(C)C)c1 [Example 178, tert-butyl [3-({[3-methyl-5-(quinoxalin-2-ylamino)-1,2-thiazol-4-yl]carbonyl}amino)-phenyl]carbamate] |
| 58 nM | 1800 nM | Cc1nsc(Nc2cnc3ccccc3n2)c1C(=O)Nc1ccc(Oc2cccnc2)nc1 [Example 231, 3-methyl-N-[6-(pyridin-3-yloxy)pyridin-3-yl]-5-(quinoxalin-2-ylamino)-1,2-thiazole-4-carboxamide] |

From patent US20170334899A1, “AMINO-SUBSTITUTED ISOTHIAZOLES” (Bayer Pharma Aktiengesellschaft, priority 2014, published 2017)
